Tests used:
Format in all cases: cell-based, human
CD164 = assay: DNA microarray, CD164 expression in fibroblasts exposed to genistein; details: 100 μM, 48 h vs DMSO
Experimental: (§1) The experiments were conducted to characterise the transcriptomic profile of human fibroblast cells exposed to genistein, and in particular to determine the expression of genes encoding lysosomal enzymes involved in metabolism (i.e. synthesis and degradation) of organic substances. The absence or deficiency of these enzymes' activity is responsible for occurrence of various lysosomal storage diseases (LSD) (including MPS). The tested hypothesis assumed that genistein influences the expression of many genes, among which there are genes coding for enzymes required in metabolism of compounds, which are pathologically stored in LSD. The results provide important information regarding genistein action on the molecular level within the range of gene expression modulation by this substance. The experiment was conducted in biological quintuplicates. Human dermal fibroblasts (HDFa) were exposed in vitro for 1, 24 or 48 hours to: 30, 60 or 100 μM of genistein; 0.05% DMSO (K1); or were untreated (control cells) (K2), and total RNA was isolated and analysed.
(§2) Fibroblast cells were grown in Dulbecco (DMEM) medium supplemented with 10% fetal bovine serum (FBS) with the addition of 1% antibiotics and anti-fungal agents at 37° C. in humidified atmosphere of 5% CO2, until the required confluency was obtained.
(§3) To determine the effect of tested compound on the transcriptom of the fibroblast cells, the growth medium was replaced with fresh medium, either non-supplemented (0.05% DMSO), or containing genistein (30, 60 or 100 μM, in 0.05% DMSO). The exposure was done for 1, 24 or 48 hours.
(§4) Total RNA was isolated from fibroblasts using High Pure RNA Isolation Kit according to the protocol and then it was quantitatively evaluated using Quant-It™ RiboGreen® Assay Kit.
(§5) Biotinylated cRNA was prepared using Ambion Total PrepAmp Kit for Illumina arrays.
(§6) Standard hybridization and quantitative image analysis procedures—Illumina hybridization protocol and Illumina scanning protocol, were used.
(§7) Processing of the results was done during data definition, including: background correction (using background subtraction method), normalization (using quantile normalization algorithm with Illumina GenomeStudio software package: gene expression module version 1.9.0) and summarization (using method, which sums the values of signal intensities from a set of probes).

TPP1 = assay: DNA microarray, TPP1 expression in fibroblasts exposed to genistein; details: for TPP1 fold change Average: 48 h vs DMSO
Experimental: as §1, §2, §3, §4, §5, §6, §7

ARSA = assay: DNA microarray, ARSA expression in fibroblasts exposed to genistein; details: for ARSA fold change Average: 48 h vs DMSO
Experimental: as §1, §2, §3, §4, §5, §6, §7

CTSA = assay: DNA microarray, CTSA expression in fibroblasts exposed to genistein; details: for CTSA fold change Average: 48 h vs DMSO
Experimental: as §1, §2, §3, §4, §5, §6, §7

MAN2B1 = assay: DNA microarray, MAN2B1 expression in fibroblasts exposed to genistein; details: for MAN2B1 fold change Average: 48 h vs DMSO
Experimental: as §1, §2, §3, §4, §5, §6, §7

HEXA = assay: DNA microarray, HEXA expression in fibroblasts exposed to genistein; details: for HEXA fold change Average: 48 h vs DMSO
Experimental: as §1, §2, §3, §4, §5, §6, §7

TBP = assay: DNA microarray, TBP reference gene expression in fibroblasts exposed to genistein
Experimental: as §1, §2, §3, §4, §5, §6, §7

NPC1 = assay: DNA microarray, NPC1 expression in fibroblasts exposed to genistein; details: for NPC1 fold change Average: 48 h vs DMSO
Experimental: as §1, §2, §3, §4, §5, §6, §7

What does the source list for `O=c1c(-c2ccc(O)cc2)coc2cc(O)cc(O)c12` [genistein, 4′,5,7-trihydroxy-3-phenylchromen-4-one]?
CD164 fold change Average (CD164): 1.282 fold change; TPP1 fold change Average 1h30/1hK1 (TPP1; 30 μM, 1 h vs 0.05% DMSO): 1.0655 fold change; TPP1 fold change Average (TPP1; 30 μM): 1.2672 fold change; TPP1 fold change Average 1h60/1hK1 (TPP1; 60 μM, 1 h vs 0.05% DMSO): 1.001 fold change; TPP1 fold change Average (TPP1; 60 μM): 1.505 fold change; TPP1 fold change Average 1h100/1hK1 (TPP1; 100 μM, 1 h vs 0.05% DMSO): 1.031 fold change; TPP1 fold change Average (TPP1; 100 μM): 1.603 fold change; ARSA fold change Average 1h30/1hK1 (ARSA; 30 μM, 1 h vs 0.05% DMSO): 0.9099 fold change; ARSA fold change Average 1h60/1hK1 (ARSA; 60 μM, 1 h vs 0.05% DMSO): 0.9092 fold change; ARSA fold change Average (ARSA; 60 μM): 1.218 fold change; ARSA fold change Average 1h100/1hK1 (ARSA; 100 μM, 1 h vs 0.05% DMSO): 0.963 fold change; ARSA fold change Average (ARSA; 100 μM): 1.526 fold change; CTSA fold change Average 1h30/1hK1 (CTSA; 30 μM, 1 h vs 0.05% DMSO): 1.0199 fold change; CTSA fold change Average (CTSA; 30 μM): 1.3019 fold change; CTSA fold change Average 1h60/1hK1 (CTSA; 60 μM, 1 h vs 0.05% DMSO): 0.9816 fold change; CTSA fold change Average (CTSA; 60 μM): 1.637 fold change; CTSA fold change Average 1h100/1hK1 (CTSA; 100 μM, 1 h vs 0.05% DMSO): 0.9643 fold change; CTSA fold change Average (CTSA; 100 μM): 1.571 fold change; MAN2B1 fold change Average 1h30/1hK1 (MAN2B1; 30 μM, 1 h vs 0.05% DMSO): 1.0342 fold change; MAN2B1 fold change Average (MAN2B1; 30 μM): 1.036 fold change; MAN2B1 fold change Average 1h60/1hK1 (MAN2B1; 60 μM, 1 h vs 0.05% DMSO): 0.8507 fold change; MAN2B1 fold change Average (MAN2B1; 60 μM): 1.586 fold change; MAN2B1 fold change Average 1h100/1hK1 (MAN2B1; 100 μM, 1 h vs 0.05% DMSO): 0.9864 fold change; MAN2B1 fold change Average (MAN2B1; 100 μM): 1.924 fold change; HEXA fold change Average 1h30/1hK1 (HEXA; 30 μM, 1 h vs 0.05% DMSO): 1.2226 fold change; HEXA fold change Average (HEXA; 30 μM): 1.0817 fold change; HEXA fold change Average 1h60/1hK1 (HEXA; 60 μM, 1 h vs 0.05% DMSO): 1.174 fold change; HEXA fold change Average (HEXA; 60 μM): 1.474 fold change; HEXA fold change Average 1h100/1hK1 (HEXA; 100 μM, 1 h vs 0.05% DMSO): 1.042 fold change; HEXA fold change Average (HEXA; 100 μM): 1.621 fold change; TBP fold change Average 1h30/1hK1 (TBP; 30 μM, 1 h vs 0.05% DMSO): 0.974 fold change; TBP fold change Average 24h30/24hK1 (TBP; 30 μM, 24 h vs 0.05% DMSO): 0.8816 fold change; TBP fold change Average 48h30/48hK1 (TBP; 30 μM, 48 h vs 0.05% DMSO): 0.9265 fold change; TBP fold change Average 1h60/1hK1 (TBP; 60 μM, 1 h vs 0.05% DMSO): 0.9183 fold change; TBP fold change Average 24h60/24hK1 (TBP; 60 μM, 24 h vs 0.05% DMSO): 0.7892 fold change; TBP fold change Average 48h60/48hK1 (TBP; 60 μM, 48 h vs 0.05% DMSO): 0.9926 fold change; TBP fold change Average 1h100/1hK1 (TBP; 100 μM, 1 h vs 0.05% DMSO): 0.9531 fold change; TBP fold change Average 24h100/24hK1 (TBP; 100 μM, 24 h vs 0.05% DMSO): 0.8303 fold change; TBP fold change Average 48h100/48hK1 (TBP; 100 μM, 48 h vs 0.05% DMSO): 0.8862 fold change; NPC1 fold change Average 1h30/1hK1 (NPC1; 30 μM, 1 h vs 0.05% DMSO): 0.9973 fold change; NPC1 fold change Average (NPC1; 30 μM): 1.567 fold change; NPC1 fold change Average 1h60/1hK1 (NPC1; 60 μM, 1 h vs 0.05% DMSO): 1.035 fold change; NPC1 fold change Average (NPC1; 60 μM): 1.875 fold change; NPC1 fold change Average 1h100/1hK1 (NPC1; 100 μM, 1 h vs 0.05% DMSO): 0.9825 fold change; NPC1 fold change Average (NPC1; 100 μM): 2.269 fold change
